Read-outs that look alike come from different tables or passages of the source.
Target: dipeptidyl peptidase IV (Homo sapiens, UniProt P27487)
Assay: biochemical
[1] = values without "*" = IC-50, read-out: IC50DPIV
[2] = values marked with "*" are ID50 values, read-out: IC50DPIV, values marked with "*" = ID50

Sequence of dipeptidyl peptidase IV (P27487 whole entry, species assumed): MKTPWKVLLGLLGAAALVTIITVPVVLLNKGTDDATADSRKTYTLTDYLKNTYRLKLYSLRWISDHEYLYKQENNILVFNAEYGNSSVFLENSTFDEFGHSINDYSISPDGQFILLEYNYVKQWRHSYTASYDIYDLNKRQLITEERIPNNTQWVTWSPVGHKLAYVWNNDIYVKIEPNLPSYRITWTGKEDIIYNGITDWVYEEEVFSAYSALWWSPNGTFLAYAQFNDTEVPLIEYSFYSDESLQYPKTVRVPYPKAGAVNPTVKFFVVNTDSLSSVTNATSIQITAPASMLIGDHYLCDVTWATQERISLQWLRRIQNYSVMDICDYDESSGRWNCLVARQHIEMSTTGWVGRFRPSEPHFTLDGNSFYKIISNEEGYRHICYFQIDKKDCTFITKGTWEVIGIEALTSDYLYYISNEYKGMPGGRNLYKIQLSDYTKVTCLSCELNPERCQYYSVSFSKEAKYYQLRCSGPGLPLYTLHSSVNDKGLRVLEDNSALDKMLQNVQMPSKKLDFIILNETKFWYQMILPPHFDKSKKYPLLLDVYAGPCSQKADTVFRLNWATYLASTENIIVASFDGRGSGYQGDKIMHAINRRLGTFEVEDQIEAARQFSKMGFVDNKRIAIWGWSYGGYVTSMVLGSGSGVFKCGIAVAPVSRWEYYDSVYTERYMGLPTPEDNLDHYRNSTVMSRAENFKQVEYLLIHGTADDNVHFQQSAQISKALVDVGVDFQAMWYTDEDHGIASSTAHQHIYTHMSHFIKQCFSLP

SMILES	IC50 [1] [µM]	IC50 [2] [µM]
Cc1ccc(OCC(=O)N/N=C/c2c(Br)cc(Br)c(O)c2Br)c(Br)c1 [D10.106]		101
CCOc1cccc(/C=N\NC(=O)c2ccco2)c1O [D10.107]		103
O=C(N/N=C/c1cc(Br)cc(Br)c1OC(=O)c1ccccc1)/C(=C/c1cccs1)NC(=O)c1ccccc1 [D10.110]		114
O=C(N/N=C/c1ccc(O)c(O)c1)c1cccc([N+](=O)[O-])c1 [D10.111]		116
CCn1c2ccccc2c2cc(/C=N/NC(=O)c3ccc([N+](=O)[O-])cc3)ccc21 [D10.116]		165
O=C(COc1c(O)cc(Br)cc1Br)N/N=C/c1ccc(O)c(O)c1 [D10.119]		177
C/C(=N\NC(=O)CNC(=O)c1ccc(Cl)cc1)c1ccc2ccccc2c1 [D10.122]		208
CCOc1cc(/C=N/NC(=O)c2ccccc2)ccc1O [D10.123]		218
COc1cc(/C=N/NC(=O)c2ccccc2[N+](=O)[O-])cc(OC)c1OC [D10.128]		241
O=C(N/N=C/c1ccccc1O)c1cc(-c2ccc3ccccc3c2)n[nH]1 [D10.130]		255
Cc1ccc(OCC(=O)N/N=C/c2ccccc2OC(=O)c2ccc([N+](=O)[O-])cc2)cc1 [D10.131]		257
O=C(N/N=C/c1cc(Br)ccc1OC(=O)c1ccc([N+](=O)[O-])cc1)/C(=C\c1ccc2c(c1)OCO2)NC(=O)c1ccccc1 [D10.133]		272
O=C(NNC(=O)c1ccc([N+](=O)[O-])cc1)c1ccc(N2C(=O)c3ccc(C(=O)NNC(=O)c4ccc([N+](=O)[O-])cc4)cc3C2=O)cc1 [D10.137]		402
CCN(CC)c1ccc(/C=C(/NC(=O)c2ccccc2)C(=O)N/N=C/c2ccc(-c3ccc([N+](=O)[O-])cc3)o2)cc1 [D10.138]		418
COc1ccc(S(=O)(=O)N(CC(=O)N/N=C/c2ccc(C(C)C)cc2)c2cc(Cl)ccc2OC)cc1OC [D10.139]		432
CSc1ccc(/C=N/NC(=O)c2cccs2)cc1 [D10.141]		498

SMILES	IC50 [1] [µM]	IC50 [2] [µM]
O=C(N/N=C/c1cccc(OC(=O)c2ccccc2Cl)c1)/C(=C\c1ccc2c(c1)OCO2)NC(=O)c1ccccc1 [D10.143]		656
O=C(Nc1cccc(/N=C/c2cc(/N=N\c3ccccc3Cl)ccc2O)c1)c1ccco1 [D11.001]		2.5
O=C(Nc1cccc(/N=C/c2cc(I)cc(I)c2O)c1)c1ccco1 [D11.002]	9.2	
C/C(=N/OC(=O)C(C)(C)C)c1cc2ccccc2oc1=O [D11.004]	14.1	
CCCC(=O)O/N=C(/C)c1cc2ccccc2oc1=O [D11.007]	18.9	
Cc1[nH]c2ccccc2c1/C=N/OC(=O)C1CC1 [D11.008]	30	
Cc1csc(/C(=N\OC(=O)c2ccco2)C(N)=O)n1 [D11.009]	32.8	
COC(=O)O/N=C(/N)c1nonc1N [D11.011]	44.3	
CC1CCN(C(=O)/C(=C\c2ccco2)NC(=O)c2ccc(Cl)cc2)CC1 [D12.004]	18.5	
CCOC(=O)c1c(C)oc2c1c1c(c3ccccc32)OCN(C2CCS(=O)(=O)C2)C1 (stereo not drawn) [D12.017]	34.2	
Cc1ccc(C(=O)N/C(=C\c2ccco2)C(=O)N2CCOCC2)cc1C [D12.025]	46.5	
CCOC(=O)c1n[nH]c2c1CN(c1ccc([N+](=O)[O-])cc1)C2=O [D12.031]	54.5	
O=C(N/N=C/c1cc(Br)c(O)c(Br)c1O)/C(=C\c1ccc2c(c1)OCO2)NC(=O)c1ccccc1 [D12.032]	60	
CCCOC(=O)c1cc(-c2ccc(/C=C3\C(=O)NC(=O)C(C#N)=C3C)o2)ccc1Cl [D12.034]	65.3	
Cc1ccc(C(=O)N/C(=C/c2ccco2)C(=O)N(C)C)cc1 [D12.038]	47.7	
COC(=O)c1cccc(NC(=O)/C(=C\c2ccc3c(c2)OCO3)NC(=O)c2ccc(Br)o2)c1 [D12.043]		92.2

More lines, now with the values ahead:

IC50 [1] [µM]	IC50 [2] [µM]	SMILES
99.4		COc1ccc(OCC(=O)N/N=C/c2c(Br)cc(Br)c(O)c2Br)c(Br)c1 [D10.105]
110		COc1cccc(/C=N/NC(=O)c2cc(-c3cccc([N+](=O)[O-])c3)n[nH]2)c1O [D10.108]
113		COc1ccc(OCC(=O)N/N=C/c2c(Br)cc(Br)c(O)c2Br)cc1 [D10.109]
	127	O=C(COc1ccccc1C(=O)N/N=C\c1ccc(O)c(O)c1)N/N=C/c1ccc(O)c(O)c1 [D10.113]
	166	COc1ccc(/C=C(\NC(=O)c2ccccc2)C(=O)N/N=C/c2ccc(OC)c(COc3ccc(C(=O)OCC(C)C)cc3)c2)cc1 [D10.117]
	166	Cc1cc(Cl)ccc1OC(C)C(=O)N/N=C1/C(=O)Nc2ccc([N+](=O)[O-])cc21 (stereo not drawn) [D10.118]
	197	COc1ccc(OCC(=O)N/N=C/c2ccc(OC)c(Br)c2)c(Br)c1 [D10.120]
	204	O=C(CCCOc1ccc(Cl)cc1Cl)N/N=C1/C(=O)Nc2ccc(Br)cc21 [D10.121]
	225	CCCN(CCC)c1ccc(/C=N/NC(=O)COc2ccc(C)cc2[N+](=O)[O-])cc1 [D10.124]
	233	Cc1ccc(C)c(NCC(=O)N/N=C\c2cc([N+](=O)[O-])ccc2N2CCOCC2)c1 [D10.125]
	234	O=C(N/N=C/c1cccc([N+](=O)[O-])c1)c1ccc(NCc2ccccc2)cc1 [D10.126]
	243	COC(=O)c1ccc(/C=N/NC(=O)c2cc(C34CC5CC(CC(C5)C3)C4)n[nH]2)cc1 [D10.129]
	271	CCOc1cc(/C=N/NC(=O)c2nnn(-c3nonc3N)c2-c2ccccc2)ccc1OC [D10.132]
	275	COc1ccc(/C=N/NC(=O)C(=O)Nc2ccc(Cl)cc2C)c(OC)c1 [D10.134]
	314	Nc1nonc1-n1nnc(C(=O)N/N=C/c2ccccc2Br)c1-c1ccc([N+](=O)[O-])cc1 [D10.135]
	340	Cc1cc(C(=O)N/N=C\c2c[nH]c3ccccc23)c(C)o1 [D10.136]

IC50 [1] [µM]	IC50 [2] [µM]	SMILES
	458	COc1cccc(/C=N/NC(=O)c2ccc(OCc3cccc(Br)c3)cc2)c1OC [D10.140]
	609	N/C(=N/[N+](=O)[O-])N/N=C/c1ccc(-c2cccc(Cl)c2Cl)o1 [D10.142]
	775	Cc1ccccc1NC(=O)C(=O)N/N=C/c1cccc(Cl)c1 [D10.144]
14		Cc1csc(/C(=N\OC(=O)c2ccc(Br)o2)C(N)=O)n1 [D11.003]
15.2		CCCC(=O)O/N=C1/C(=O)N(c2ccccc2)c2ccccc21 [D11.006]
43.8		CCc1c(C)[nH]c2c1/C(=N/OC(=O)C(C)C)CCC2 [D11.010]
16.2		Cn1c(=O)c2c(nc(NCCCCO)n2Cc2ccccc2Cl)n(C)c1=O [D12.002]
20.4		CN(C)c1ccc(C2C=C(Nc3ccccc3)C(=O)N2c2ccccc2)cc1 (stereo not drawn) [D12.006]
30.8		CCCn1c(N2CCN(CC(=O)c3c[nH]c4ccccc34)CC2)nc2c1c(=O)[nH]c(=O)n2C [D12.012]
38.2		O=C(Nc1c[nH]c(=O)[nH]c1=O)c1ccc2c(c1)C(=O)N(c1ccc(C(=O)c3ccccc3)cc1)C2=O [D12.016]
49		CCCCOC(=O)c1cc(-c2ccc(/C=C3/C(=O)N(CC(C)O)C(=O)C(C#N)=C3C)o2)ccc1Cl (stereo not drawn) [D12.027]
59.4		CC(=O)Oc1ccc2oc(=O)c3c(c2c1)CCCN3C(C)=O [D12.029]
60.7		COC(=O)C1=CN(N(C(C)=O)C(C)=O)C(=O)CC1 [D12.033]
	83.3	Cn1c(=O)c2c(nc(NCC(O)CO)n2Cc2ccccc2Cl)n(C)c1=O (stereo not drawn) [D12.040]
	198	COc1ccc(/C=C2\C(=O)N(c3ccccc3)C3=C2C(c2ccc(Br)cc2)N(c2ccccc2)C3=O)cc1 (stereo not drawn) [D12.047]

Source: patent US20070037785A1, “Novel dipeptidyl peptidase IV inhibitors used for functionally influencing different cells and treating immunological, infammatory, neuronal, and other diseases” (priority 2003, published 2007)
